Measurements reported in patent publication US12174198B2, “Methods of characterizing condensate-associated characteristics of compounds and uses thereof” (Dewpoint Therapeutics, Inc., priority 2019, dated 2024).
Where a name gives a salt, the structure may show the parent alone.

Biological target: T1, FUS-SNAP condensates (Homo sapiens, UniProt P35637)
T1 sequence (P35637 1-526): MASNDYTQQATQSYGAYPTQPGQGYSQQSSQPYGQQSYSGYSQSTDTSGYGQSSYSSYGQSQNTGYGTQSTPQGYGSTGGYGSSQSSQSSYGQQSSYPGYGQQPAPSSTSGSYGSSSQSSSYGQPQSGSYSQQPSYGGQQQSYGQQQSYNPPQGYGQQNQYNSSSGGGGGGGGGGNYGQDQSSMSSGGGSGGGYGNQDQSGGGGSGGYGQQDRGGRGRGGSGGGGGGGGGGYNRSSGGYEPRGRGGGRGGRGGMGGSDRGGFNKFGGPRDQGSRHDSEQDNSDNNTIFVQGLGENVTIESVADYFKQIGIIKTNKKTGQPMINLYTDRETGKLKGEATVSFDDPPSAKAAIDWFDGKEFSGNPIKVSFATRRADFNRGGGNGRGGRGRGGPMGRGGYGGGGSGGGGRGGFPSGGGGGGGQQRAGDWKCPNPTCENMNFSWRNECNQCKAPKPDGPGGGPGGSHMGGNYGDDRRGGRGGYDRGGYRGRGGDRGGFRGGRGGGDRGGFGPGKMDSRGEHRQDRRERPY
Assay: Fluorescence imaging of dye partitioning in FUS-SNAP condensates (I-in, I-out)
Assay type: physicochemical
Details: for Ratio of intensity inside:outside FUS-SNAP Condensates Day 1 / Ratio of intensity inside:outside FUS-SNAP Condensates Day 2 / Ratio of intensity inside:outside FUS-SNAP Condensates Average: I-in:I-out; for Ratio of intensity inside:outside FUS-SNAP Condensates Day 1 / Ratio of intensity inside:outside FUS-SNAP Condensates Day 2 / Ratio of intensity inside:outside FUS-SNAP Condensates Average / Intensity Inside with Dye Average / Intensity Inside with Dye 1 / Intensity Inside with Dye 2 / Intensity Inside with Dye 3 / Intensity Outside with Dye Average / Intensity Outside with Dye 1 / Intensity Outside with Dye 2 / Intensity Outside with Dye 3: 10 μM dye; for Ratio of intensity inside:outside FUS-SNAP Condensates Average: average of two days; for Intensity Inside with Dye Average / Intensity Inside with Dye 1 / Intensity Inside with Dye 2 / Intensity Inside with Dye 3 / Intensity Inside Dye-No Dye: inside FUS-SNAP condensate; for Intensity Inside with Dye Average / Intensity Inside with Dye 1 / Intensity Inside with Dye 2 / Intensity Inside with Dye 3 / Intensity Outside with Dye Average / Intensity Outside with Dye 1 / Intensity Outside with Dye 2 / Intensity Outside with Dye 3: 5 μM protein; for Intensity Inside with Dye Average / Intensity Outside with Dye Average: average of three images; for Intensity Inside with Dye Average / Intensity Inside with Dye 1 / Intensity Inside with Dye 2 / Intensity Inside with Dye 3 / Intensity Inside Dye-No Dye / Intensity Outside with Dye Average / Intensity Outside with Dye 1 / Intensity Outside with Dye 2 / Intensity Outside with Dye 3 / Intensity Outside (Dye-No Dye): one day of experiments; for Intensity Inside with Dye 1 / Intensity Outside with Dye 1: image 1; for Intensity Inside with Dye 2 / Intensity Outside with Dye 2: image 2; for Intensity Inside with Dye 3 / Intensity Outside with Dye 3: image 3; for Intensity Inside Dye-No Dye / Intensity Outside (Dye-No Dye): background corrected; for Intensity Outside with Dye Average / Intensity Outside with Dye 1 / Intensity Outside with Dye 2 / Intensity Outside with Dye 3 / Intensity Outside (Dye-No Dye): outside FUS-SNAP condensate
Summary of the method: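 Partitioning read by spinning-disk confocal imaging (60× oil, dye-specific exposure 1-1000 ms) of condensates formed from 5 μM protein (FUS-SNAP or untagged PGL-3) plus 10 μM dye, 75 mM KCl, 1% DMSO, pH 7.25. Background-subtracted intensities inside and beside one condensate per image, three images averaged.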

SMILES	Ratio of intensity inside:outside FUS-SNAP Condensates Day 1	Ratio of intensity inside:outside FUS-SNAP Condensates Day 2	Ratio of intensity inside:outside FUS-SNAP Condensates Average	Intensity Inside with Dye Average	Intensity Inside with Dye 1	Intensity Inside with Dye 2	Intensity Inside with Dye 3	Intensity Inside Dye-No Dye	Intensity Outside with Dye Average	Intensity Outside with Dye 1	Intensity Outside with Dye 2	Intensity Outside with Dye 3	Intensity Outside (Dye-No Dye)
CCN(CC)c1ccc2c(-c3ccccc3C(=O)O)c3ccc(=[N+](CC)CC)cc-3oc2c1 [Dye 16, Rhodamine B]	4.4	3.8	4.1	2041.4	2154.5	2074.7	1895.0	1941.7	540.2	546.8	508.3	565.6	440.3
COC(=O)c1ccccc1-c1c2ccc(=N)cc-2oc2cc(N)ccc12.Cl [Dye 14, Rhodamine 123]	1.3	1.4	1.3	2970.4	3123.1	2956.9	2831.2	2835.2	2277.6	2174.8	2322.7	2335.1	2173.5

More lines, now with the values ahead:

Ratio of intensity inside:outside FUS-SNAP Condensates Day 1	Ratio of intensity inside:outside FUS-SNAP Condensates Day 2	Ratio of intensity inside:outside FUS-SNAP Condensates Average	Intensity Inside with Dye Average	Intensity Inside with Dye 1	Intensity Inside with Dye 2	Intensity Inside with Dye 3	Intensity Inside Dye-No Dye	Intensity Outside with Dye Average	Intensity Outside with Dye 1	Intensity Outside with Dye 2	Intensity Outside with Dye 3	Intensity Outside (Dye-No Dye)	SMILES
6.1	5.9	6.0	4956.7	4695.6	5663.6	4511.0	4857.1	902.4	808.3	1011.5	887.5	802.5	O=C([O-])c1ccccc1C1=c2cc3c4c(c2Oc2c1cc1c5c2CCCN5CCC1)CCC[N+]=4CCC3 [Dye 17, Rhodamine 101 inner salt]
7.6	11.0	9.3	15051.4	15394.5	13908.5	15851.1	14919.5	2092.2	2064.2	1988.2	2224.3	1959.9	N#CC1=c2cc3c4c(c2Oc2c1cc1c5c2CCCN5CCC1)CCC[N+]=4CCC3 [Dye 18, Rhodamine 800]
1.7	1.4	1.5	6277.1	6328.8	6300.8	6201.7	6141.9	3784.7	3771.1	3840.2	3742.7	3680.6	O=C1OC2(c3ccc(O)cc3Oc3cc(O)ccc32)c2ccccc21 [Dye 6, Fluorescein]
